Experimental data as given in US7018988B2, “Pharmaceutically active pyrrolidine derivatives as Bax inhibitors” (Applied Research Systems ARS Holding N.V., priority 2000, dated 2006).

Molecular target: T1, Bax (Homo sapiens, UniProt Q07812)
T1 construct: endogenous in cells; host or cells: mitochondria isolated from HeLa cells
Assay: Effect of compounds on the release of cytochrome c triggered by Bid-induced Bax activation (in vitro assay d)
Assay type: biochemical
Settings: compound at 10 μM; mitochondria isolated from HeLa cells; 10 nM recombinant Bid
Procedure: d) Effect of Compounds according to formula I onto the Release of Cytochrome c Trig-gered by Bid-Induced Bax Activation (In Vitro Assay)
Concerning the Bid-induced activation of Bax leading to mitochondrial Cytochrome C release, it is referred to the description of Martinou et al. in The Journal of Cell Biology, Vol. 144, No. 5, Mar. 8, 1999, pages 891–901. Mitochondria isolated from HeLa cells are incubated for 15 min at 30° C. in 100 μl of KCl buffer in the presence or absence of 10 nM recombinant Bid. The various compounds (10 μM) are pre-incubated for 5 min prior to addition of Bid. Following incubation, mitochondria were centrifuged for 5 min at 13000 g at 4° C. and the supernatant is collected for cytochrome c analysis. Cytochrome c is detected by Western blotting. The cytochrome c bands are scanned and quantified using a Bio-Rad (GS-700 Imaging Densitometer).
The above set out 2 in vitro assays c) and d) involving the determination of mitochondrial cytochrome c release are based on immunochemical methods using the Western blot analysis. […]

T1 sequence (Q07812 whole entry): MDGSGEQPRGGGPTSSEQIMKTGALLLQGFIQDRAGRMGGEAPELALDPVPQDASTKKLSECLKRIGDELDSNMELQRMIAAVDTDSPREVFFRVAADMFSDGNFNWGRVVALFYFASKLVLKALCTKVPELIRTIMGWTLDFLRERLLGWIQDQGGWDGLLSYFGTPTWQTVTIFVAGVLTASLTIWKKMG

inhibition at 10 µM [%]	Compound
~79	CCCCCNC(=O)N1CC(=NOC)C[C@H]1C(=O)NCCO [Example 23, (2S,4EZ)-N^2-(2-hydroxyethyl)-4-(methoxyimino)-N^1-pentyl-1,2-pyrrolidinedicarboxamide]
~59	CCCCCNC(=O)N1CC(=NOC)C[C@H]1C(=O)N1CCN(Cc2ccc3c(c2)OCO3)CC1 [Example 28, (2S,4EZ)-2-{[4-(1,3-benzodioxol-5-ylmethyl)-1-piperazinyl]carbonyl}-4-(methoxyimino)-N-pentyl-1-pyrrolidinecarboxamide]
